Laboratory results published in patent US9452225B2, “GLP-1 prodrugs” (Novo Nordisk A/S, priority 2012, dated 2016).
Numbered stars: 1 amine (or outer) side, 2 acyl side, 3 side chain; on linkers, the order of the positions; unused ones are H or OH. Square brackets hold non-standard residues; d marks the D form. Side chains are listed from the residue outwards. Peptide text beside a SMILES is read from it. * marks the point of attachment. Decanoyl(10-(4-HOOC-PhO)) = O=C(O)c1ccc(OCCCCCCCCCC(=O)*)cc1; Lac(3-(imidazol-4-yl)) = O=C(O)[C@@H](O)Cc1c[nH]cn1; γGlu = O=C(O)[C@H](CCC(=O)[*:2])N[*:1]; NMeI = CC[C@H](C)[C@H](NC)C(=O)O; AEEA = NCCOCCOCC(=O)O

Experiments:
[1] = Prodrug half-life in vitro, plasma method (minipig heparin plasma); type: in vitro ADME; settings: minipig heparin plasma 800 μL + 200 μL 200 mM phosphate pH 7.4, 37° C.; UPLC_A, or UPLC_B for compounds marked *; read-out: T½ in plasma (converted)
Protocol: (§1) The purpose of this example is to test the in vitro half-lives (T½) of the GLP-1 prodrugs of the invention, in comparison to conceptually different prodrugs. In what follows two in vitro methods are described, viz. a method conducted in buffer, and a method conducted in plasma.
(§2) The half life of the prodrug (T½) was calculated from the slope of a linear fit to the curve of ln(% prodrug (Y)) as a function of time (t), as follows: Y=÷αt+k Math. 1 T½=ln(2)/α Math. 2 Plasma Method Buffer: 200 mM Phosphate, pH 7.4 at 37° C.
NaH2PO4.2H2O (15.61 g, 100 mmol) was dissolved in milliQ water (approximately 450 mL) and adjusted to pH=7.44 at approximately 20° C. with concentrated NaOH (aq) and 1 M NaOH (aq). Water was added to 500.00 mL.
Serum: Minipig Serum, Heparin-Plasma
Fresh blood was tapped from minipig into 9 mL LH lithium heparin Vacuette tubes from Greiner bio-one (catalogue number 455084). After cooling on ice it was centrifuged (10 min, 4° C., 3000 rpm/1942G) and the supernatant isolated and kept at −18° C. before use.
100 nmol of the compound to be tested was dissolved in 200 μL buffer, added to 800 μL plasma (centrifuged), and incubated at 37° C. Samples (50 μL) were drawn at appropriate intervals into 150 μL absolute EtOH. After a short stirring the sample was centrifuged and the supernatant transferred to the UPLC vial (10 μL injection).
The % parent drug compared to prodrug formed as a function of time was evaluated by UPLC, and the half-life calculated, both in the same way as described above under the Buffer method.

[2] = Prodrug half-life in vitro, buffer method; type: physicochemical; settings: 25 mM phosphate buffer pH 7.4, 37° C., 1.0 mg/mL; UPLC_A, or UPLC_B for compounds marked *; read-out: T½ in buffer (converted)
Protocol: as §1
Buffer: 25 mM Phosphate (Ionic strength: 154 mM, pH 7.4 at 37° C.)
NaH2PO4.2H2O (1.95 g, 12.5 mmol) and NaCl (2.61 g, 44.7 mmol) were dissolved in millipore water (approximately 450 mL) and adjusted to pH=7.44 at approximately 20° C. with concentrated NaOH and 1 M NaOH. Water was added to 500.00 mL.
The compound to be tested was dissolved in buffer to a concentration of 1.0 mg/mL and incubated at 37° C. Samples were taken at adequate intervals and the % parent drug compared to prodrug formed as function of time was evaluated by the UPLC method as referred to in Table 1 by comparing the areas under the curves for the two corresponding peaks. These UPLC methods are described in the general experimental section above (UPLC_A, and UPLC_B).
as §2
The resulting half-lives are set out in Table 1 below. For comparison, the T½ in buffer of native GLP-1(7-37) (His7 variant of SEQ ID NO: 1) was 13 minutes (0.2 hours).

SMILES	half-life [1] [h]	half-life at 1 mg/mL [2] [h]	half-life [2] [h]
CC[C@H](C)[C@H](NC)C(=O)N[C@H](C(=O)O[C@@H](Cc1c[nH]cn1)C(=O)N[C@@H](C)C(=O)N[C@@H](CCC(=O)O)C(=O)NCC(=O)N[C@H](C(=O)N[C@@H](Cc1ccccc1)C(=O)N[C@H](C(=O)N[C@@H](CO)C(=O)N[C@@H](CC(=O)O)C(=O)N[C@H](C(=O)N[C@@H](CO)C(=O)N[C@@H](CCCCNC(=O)COCCOCCNC(=O)COCCOCCNC(=O)CC[C@H](NC(=O)CCCCCCCCCOc1ccc(C(=O)O)cc1)C(=O)O)C(=O)N[C@@H](Cc1ccc(O)cc1)C(=O)N[C@@H](CC(C)C)C(=O)N[C@@H](CCC(=O)O)C(=O)N[C@@H](CCC(=O)O)C(=O)N[C@@H](CCC(N)=O)C(=O)N[C@@H](C)C(=O)N[C@H](C(=O)N[C@@H](CCCNC(=N)N)C(=O)N[C@@H](CCC(=O)O)C(=O)N[C@@H](Cc1ccccc1)C(=O)N[C@H](C(=O)N[C@@H](C)C(=O)N[C@@H](CCCCNC(=O)COCCOCCNC(=O)COCCOCCNC(=O)CC[C@H](NC(=O)CCCCCCCCCOc1ccc(C(=O)O)cc1)C(=O)O)C(=O)N[C@@H](CC(C)C)C(=O)N[C@H](C(=O)N[C@@H](CCCNC(=N)N)C(=O)NCC(=O)N[C@@H](CCCNC(=N)N)C(=O)NCC(=O)O)C(C)C)[C@@H](C)CC)C(C)C)C(C)C)[C@@H](C)O)[C@@H](C)O)C(C)C [Example 3] (H-[NMeI]V[Lac(3-(imidazol-4-yl))]AEGTFTSDVSK([AEEA-AEEA-γGlu-Decanoyl(10-(4-HOOC-PhO))])YLEEQAVREFIAK([AEEA-AEEA-γGlu-Decanoyl(10-(4-HOOC-PhO))])LVRGRG-OH)	25.6	38.5	
CC[C@H](C)[C@H](N)C(=O)N[C@H](C(=O)O[C@@H](Cc1c[nH]cn1)C(=O)N[C@@H](C)C(=O)N[C@@H](CCC(=O)O)C(=O)NCC(=O)N[C@H](C(=O)N[C@@H](Cc1ccccc1)C(=O)N[C@H](C(=O)N[C@@H](CO)C(=O)N[C@@H](CC(=O)O)C(=O)N[C@H](C(=O)N[C@@H](CO)C(=O)N[C@@H](CCCCNC(=O)COCCOCCNC(=O)COCCOCCNC(=O)CC[C@H](NC(=O)CCCCCCCCCOc1ccc(C(=O)O)cc1)C(=O)O)C(=O)N[C@@H](Cc1ccc(O)cc1)C(=O)N[C@@H](CC(C)C)C(=O)N[C@@H](CCC(=O)O)C(=O)N[C@@H](CCC(=O)O)C(=O)N[C@@H](CCC(N)=O)C(=O)N[C@@H](C)C(=O)N[C@H](C(=O)N[C@@H](CCCNC(=N)N)C(=O)N[C@@H](CCC(=O)O)C(=O)N[C@@H](Cc1ccccc1)C(=O)N[C@H](C(=O)N[C@@H](C)C(=O)N[C@@H](CCCCNC(=O)COCCOCCNC(=O)COCCOCCNC(=O)CC[C@H](NC(=O)CCCCCCCCCOc1ccc(C(=O)O)cc1)C(=O)O)C(=O)N[C@@H](CC(C)C)C(=O)N[C@H](C(=O)N[C@@H](CCCNC(=N)N)C(=O)NCC(=O)N[C@@H](CCCNC(=N)N)C(=O)NCC(=O)O)C(C)C)[C@@H](C)CC)C(C)C)C(C)C)[C@@H](C)O)[C@@H](C)O)C(C)C [Example 3a] (H-IV[Lac(3-(imidazol-4-yl))]AEGTFTSDVSK([AEEA-AEEA-γGlu-Decanoyl(10-(4-HOOC-PhO))])YLEEQAVREFIAK([AEEA-AEEA-γGlu-Decanoyl(10-(4-HOOC-PhO))])LVRGRG-OH)	5	7.5	
CC[C@H](C)[C@H](NC)C(=O)N[C@H](C(=O)O[C@@H](Cc1c[nH]cn1)C(=O)N[C@@H](C)C(=O)N[C@@H](CCC(=O)O)C(=O)NCC(=O)N[C@H](C(=O)N[C@@H](Cc1ccccc1)C(=O)N[C@H](C(=O)N[C@@H](CO)C(=O)N[C@@H](CC(=O)O)C(=O)N[C@H](C(=O)N[C@@H](CO)C(=O)N[C@@H](CCCCNC(=O)COCCOCCNC(=O)COCCOCCNC(=O)CC[C@H](NC(=O)CCCCCCCCCOc1ccc(C(=O)O)cc1)C(=O)O)C(=O)N[C@@H](Cc1ccc(O)cc1)C(=O)N[C@@H](CC(C)C)C(=O)N[C@@H](CCC(=O)O)C(=O)N[C@@H](CCC(=O)O)C(=O)N[C@@H](CCC(N)=O)C(=O)N[C@@H](C)C(=O)N[C@@H](C)C(=O)N[C@@H](CCCCNC(=O)COCCOCCNC(=O)COCCOCCNC(=O)CC[C@H](NC(=O)CCCCCCCCCOc1ccc(C(=O)O)cc1)C(=O)O)C(=O)N[C@@H](CCC(=O)O)C(=O)N[C@@H](Cc1ccccc1)C(=O)N[C@H](C(=O)N[C@@H](C)C(=O)N[C@@H](Cc1c[nH]c2ccccc12)C(=O)N[C@@H](CC(C)C)C(=O)N[C@H](C(=O)N[C@@H](CCC(N)=O)C(=O)NCC(=O)N[C@@H](CCCNC(=N)N)C(=O)NCC(=O)O)C(C)C)[C@@H](C)CC)C(C)C)[C@@H](C)O)[C@@H](C)O)C(C)C [Example 5]	32.2		37.9
